Experiments:
[1] = system: sstr2-negative CHO cell line; settings: read-out: IC50 on CHO cells; cited from earlier work
Ar42J cells = assay: Cell death kinetics; assay type: cell-based, rat; settings: MTS, n = 3, 6 at 60 nM, α-amanitin 1 at 10 μM
sstr2 = settings: read-out: Kd for sstr2; cited from earlier work

| Substance | IC50 [1] [nM] | cell viability after 24 hours of incubation (in words) (Ar42J cells; 24 h) | cell viability after 48 hours of incubation (in words) (Ar42J cells; 48 h) | Kd (sstr2) [nM] |
| --- | --- | --- | --- | --- |
| N-propargyl-dideoxy-amanitin [compound 4] | 1000 to 2000 |  |  |  |
| α-amanitin [compound 1] | 300 to 700 | remained fully viable | loss of cell viability was only observed after 48 hours |  |
| octreotate [compound 2] |  |  |  | ~0.4 |

From publication PMC8729174 (RSC Chemical Biology, 2021)
